# Reference: patent publication US11865098B1, “Methods and compositions for treating excessive sleepiness” (Axsome Malta Ltd., priority 2017, dated 2024)
# System: patients with narcolepsy type 1 or type 2
# Assay: MWT, 12-week phase 3 study in narcolepsy
# Assay type: in vivo, human
# Experimental: The MWT is an objective test used to measure how alert a subject is during the day. The test consists of four sleep trials with two hours in between the trials. The first trial is performed 1.5-3 hours after the subject's normal wake-up time. Sensors are placed on the head, face, and chin to detect when the subject is asleep and awake during the test. The subject sits quietly in bed with his or her back and head supported by a pillow and is asked to sit still and look straight ahead while trying to stay awake as long as possible. Each trial lasts 40 minutes or until the subject is asleep for 90 seconds. Between trials, the subject stays out of bed and occupies himself or herself to remain awake. Falling asleep in an average of less than eight minutes is considered abnormal. About 40-60% of subjects with normal sleep stay awake for the entire 40 minutes of all four trials.
# The study was a 12-week, double-blind, randomized, placebo-controlled, parallel-group study. Patients were randomized (1:1:1:1) to receive placebo or APC 75, 150, or 300 mg; randomization was stratified by the presence or absence of cataplexy.
# Key inclusion criteria included adults 18-75 years old, inclusive, with a diagnosis of narcolepsy type 1 or type 2 according to ICSD-3 (American Academy of Sleep Medicine. The International Classification of Sleep Disorders—Third Edition (ICSD-3). Darien, IL: American Academy of Sleep Medicine; 2014) or DSM-5 (American Psychiatric Association. Diagnostic and Statistical Manual of Mental Disorders Fifth Edition (DSM-5). Arlington, VA: American Psychiatric Association; 2013) criteria, baseline mean sleep latency <25 minutes on the first 4 trials of a 5-trial, 40-minute Maintenance of Wakefulness Test (MWT) and baseline Epworth Sleepiness Scale (ESS) (Johns, Sleep 14(6):540 (1991)) score ≥10, usual nightly total sleep time ≥6 hours, and body mass index between 18 and 45 kg/m^2.
# Co-primary endpoints were change from baseline to week 12 in MWT mean sleep latency and ESS score. The key secondary endpoint was the percentage of patients who reported improvement on the Patient Global Impression of Change (PGI-C) (Guy, ECDEU assessment manual for psychopharmacology, revised. US Department of Health, Education, and Welfare publication (ADM 76-338). Rockville, MD: National Institute of Mental Health; 1976) at week 12. Other secondary and exploratory endpoints included changes on function and quality-of-life and changes in the number of cataplexy attacks per week. Safety evaluation included adverse events, laboratory tests, and vital signs.
# Efficacy analyses were based on the modified intent-to-treat population (mITT), defined as all patients who were randomized, received at least 1 dose of study drug, and had baseline and at least 1 post-baseline evaluation of both MWT and ESS. MWT and ESS were analyzed using a mixed-effect repeated measures (MMRM) model. PGI-C was analyzed using a chi-square test. A fixed hierarchical testing procedure was used to correct for multiplicity, starting with the highest dose of APC for the co-primary endpoints and the key secondary endpoint; testing proceeded with each subsequent lower doses.
# [1] = Combined JZP-110, Week 12, mITT
smiles,measurement,setting,value
"NC(=O)OC[C@H](N)Cc1ccccc1 [JZP-110, (R)-2-amino-3-phenylpropyl carbamate]","MWT mean sleep latency increase from baseline >=15 minutes, n subjects","300 mg, Week 1, mITT",11
same,"MWT mean sleep latency increase from baseline >=20 minutes, % of subjects","300 mg, Week 1, mITT",(32.0) %
same,"MWT mean sleep latency increase from baseline >=20 minutes, n subjects","300 mg, Week 1, mITT",8
same,"MWT mean sleep latency increase from baseline >=25 minutes, % of subjects","300 mg, Week 1, mITT",(24.0) %
same,"MWT mean sleep latency increase from baseline >=25 minutes, n subjects","300 mg, Week 1, mITT",6
same,"MWT mean sleep latency increase from baseline >=30 minutes, % of subjects","300 mg, Week 1, mITT",(20.0) %
same,"MWT mean sleep latency increase from baseline >=30 minutes, n subjects","300 mg, Week 1, mITT",5
same,"MWT mean sleep latency increase from baseline >=5 minutes, % of subjects","300 mg, Week 4, mITT",(69.2) %
same,"MWT mean sleep latency increase from baseline >=5 minutes, n subjects","300 mg, Week 4, mITT",36
same,"MWT mean sleep latency increase from baseline >=10 minutes, % of subjects","300 mg, Week 4, mITT",(53.8) %
same,"MWT mean sleep latency increase from baseline >=10 minutes, n subjects","300 mg, Week 4, mITT",28
same,"MWT mean sleep latency increase from baseline >=15 minutes, % of subjects","300 mg, Week 4, mITT",(36.5) %
same,"MWT mean sleep latency increase from baseline >=15 minutes, n subjects","300 mg, Week 4, mITT",19
same,"MWT mean sleep latency increase from baseline >=20 minutes, % of subjects","300 mg, Week 4, mITT",(25.0) %
same,"MWT mean sleep latency increase from baseline >=20 minutes, n subjects","300 mg, Week 4, mITT",13
same,"MWT mean sleep latency increase from baseline >=25 minutes, % of subjects","300 mg, Week 4, mITT",(17.3) %
same,"MWT mean sleep latency increase from baseline >=25 minutes, n subjects","300 mg, Week 4, mITT",9
same,"MWT mean sleep latency increase from baseline >=30 minutes, % of subjects","300 mg, Week 4, mITT",(13.5) %
same,"MWT mean sleep latency increase from baseline >=30 minutes, n subjects","300 mg, Week 4, mITT",7
same,"MWT mean sleep latency increase from baseline >=5 minutes, % of subjects","300 mg, Week 12, mITT",(60.0) %
same,"MWT mean sleep latency increase from baseline >=5 minutes, n subjects","300 mg, Week 12, mITT",24
same,"MWT mean sleep latency increase from baseline >=10 minutes, % of subjects","300 mg, Week 12, mITT",(50.0) %
same,"MWT mean sleep latency increase from baseline >=10 minutes, n subjects","300 mg, Week 12, mITT",20
same,"MWT mean sleep latency increase from baseline >=15 minutes, % of subjects","300 mg, Week 12, mITT",(37.5) %
same,"MWT mean sleep latency increase from baseline >=15 minutes, n subjects","300 mg, Week 12, mITT",15
same,"MWT mean sleep latency increase from baseline >=20 minutes, % of subjects","300 mg, Week 12, mITT",(27.5) %
same,"MWT mean sleep latency increase from baseline >=20 minutes, n subjects","300 mg, Week 12, mITT",11
same,"MWT mean sleep latency increase from baseline >=25 minutes, % of subjects","300 mg, Week 12, mITT",(15.0) %
same,"MWT mean sleep latency increase from baseline >=25 minutes, n subjects","300 mg, Week 12, mITT",6
same,"MWT mean sleep latency increase from baseline >=30 minutes, % of subjects","300 mg, Week 12, mITT",(7.5) %
same,"MWT mean sleep latency increase from baseline >=30 minutes, n subjects","300 mg, Week 12, mITT",3
same,MWT mean sleep latency relative to placebo,"150 and 300 mg, week 12, mITT",significantly increased MWT mean sleep latency relative to placebo
same,"MWT mean sleep latency increase from baseline >=5 minutes, % of subjects","Combined JZP-110, Week 1, mITT",(53.9) %
same,"MWT mean sleep latency increase from baseline >=5 minutes, n subjects","Combined JZP-110, Week 1, mITT",41
same,"MWT mean sleep latency increase from baseline >=10 minutes, % of subjects","Combined JZP-110, Week 1, mITT",(42.1) %
same,"MWT mean sleep latency increase from baseline >=10 minutes, n subjects","Combined JZP-110, Week 1, mITT",32
same,"MWT mean sleep latency increase from baseline >=15 minutes, % of subjects","Combined JZP-110, Week 1, mITT",(27.6) %
same,"MWT mean sleep latency increase from baseline >=15 minutes, n subjects","Combined JZP-110, Week 1, mITT",21
same,"MWT mean sleep latency increase from baseline >=20 minutes, % of subjects","Combined JZP-110, Week 1, mITT",(17.1) %
same,"MWT mean sleep latency increase from baseline >=20 minutes, n subjects","Combined JZP-110, Week 1, mITT",13
same,"MWT mean sleep latency increase from baseline >=25 minutes, % of subjects","Combined JZP-110, Week 1, mITT",(9.2) %
same,"MWT mean sleep latency increase from baseline >=25 minutes, n subjects","Combined JZP-110, Week 1, mITT",7
same,"MWT mean sleep latency increase from baseline >=30 minutes, % of subjects","Combined JZP-110, Week 1, mITT",(6.6) %
same,"MWT mean sleep latency increase from baseline >=30 minutes, n subjects","Combined JZP-110, Week 1, mITT",5
same,"MWT mean sleep latency increase from baseline >=5 minutes, % of subjects","Combined JZP-110, Week 4, mITT",(57.6) %
same,"MWT mean sleep latency increase from baseline >=5 minutes, n subjects","Combined JZP-110, Week 4, mITT",87
same,"MWT mean sleep latency increase from baseline >=10 minutes, % of subjects","Combined JZP-110, Week 4, mITT",(40.4) %
same,"MWT mean sleep latency increase from baseline >=10 minutes, n subjects","Combined JZP-110, Week 4, mITT",61
same,"MWT mean sleep latency increase from baseline >=15 minutes, % of subjects","Combined JZP-110, Week 4, mITT",(26.5) %
same,"MWT mean sleep latency increase from baseline >=15 minutes, n subjects","Combined JZP-110, Week 4, mITT",40
same,"MWT mean sleep latency increase from baseline >=20 minutes, % of subjects","Combined JZP-110, Week 4, mITT",(15.9) %
same,"MWT mean sleep latency increase from baseline >=20 minutes, n subjects","Combined JZP-110, Week 4, mITT",24
same,"MWT mean sleep latency increase from baseline >=25 minutes, % of subjects","Combined JZP-110, Week 4, mITT",(9.3) %
same,"MWT mean sleep latency increase from baseline >=25 minutes, n subjects","Combined JZP-110, Week 4, mITT",14
same,"MWT mean sleep latency increase from baseline >=30 minutes, % of subjects","Combined JZP-110, Week 4, mITT",(4.6) %
same,"MWT mean sleep latency increase from baseline >=30 minutes, n subjects","Combined JZP-110, Week 4, mITT",7
same,"MWT mean sleep latency increase from baseline >=5 minutes, % of subjects",[1],(52.9) %
same,"MWT mean sleep latency increase from baseline >=5 minutes, n subjects",[1],72
same,"MWT mean sleep latency increase from baseline >=10 minutes, % of subjects",[1],(39.0) %
same,"MWT mean sleep latency increase from baseline >=10 minutes, n subjects",[1],53
same,"MWT mean sleep latency increase from baseline >=15 minutes, % of subjects",[1],(29.4) %
same,"MWT mean sleep latency increase from baseline >=15 minutes, n subjects",[1],40
same,"MWT mean sleep latency increase from baseline >=20 minutes, % of subjects",[1],(17.6) %
same,"MWT mean sleep latency increase from baseline >=20 minutes, n subjects",[1],24
same,"MWT mean sleep latency increase from baseline >=25 minutes, % of subjects",[1],(8.1) %
same,"MWT mean sleep latency increase from baseline >=25 minutes, n subjects",[1],11
same,"MWT mean sleep latency increase from baseline >=30 minutes, % of subjects",[1],(2.9) %
same,"MWT mean sleep latency increase from baseline >=30 minutes, n subjects",[1],4
same,"MWT mean sleep latency, effect at week 1","all doses, as early as week 1",Statistically significant effects
same,Tolerance to the wake-promoting effects,over the 12 weeks of the study,no apparent tolerance to the wake-promoting effects
